What was measured:
Format in all cases: in vivo
[1] = test system: Echinochloa oryzacola Vasing.; assay: Test Example 1: herbicidal activity, application before weed generation in submerged conditions; conditions: Application herbicide amount 320 g/ha; Seventeenth Table
In short: (§1)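 Submerged pot test: alluvial soil, 4 cm water, seeds sown mixed, 2.5-leaf rice transplanted; emulsion in water applied to surface day of sowing, dose g/ha; greenhouse 25–30° C.; 3 wk; 0–5 rating.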

Monochoria vaginalis = assay: as above; conditions: Application herbicide amount 320 g/ha; Seventeenth Table
In short: as §1

Scirpus juncoides = assay: as above; conditions: Application herbicide amount 320 g/ha; Seventeenth Table
In short: as §1

Abutilon theophrasti = assay: Test Example 4: herbicidal effect by application to foliage (diluvial soil, plastic box); conditions: Application herbicide amount 320 g/ha; foliage application
In short: (§2)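 Read-out is a 0–5 visual grade of herbicidal ratio (5: ≥90%, almost withered; 0: ≤5%) taken three weeks after treatment. Compound was applied as a diluted emulsion to stem and leaf parts of 14-day greenhouse-grown plants (25° C. to 30° C.) at rates expressed as g/ha.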

Alopecurus myosuroides = assay: as above; conditions: Application herbicide amount 320 g/ha; foliage application
In short: as §2

Amaranthus retroflexus = assay: as above; conditions: Application herbicide amount 320 g/ha; foliage application
In short: as §2

Apera spica-venti. = assay: as above; conditions: Application herbicide amount 320 g/ha; foliage application
In short: as §2

Avena fatua = assay: as above; conditions: Application herbicide amount 320 g/ha; foliage application
In short: as §2

Chenopodium album = assay: as above; conditions: Application herbicide amount 320 g/ha; foliage application
In short: as §2

Digitaria ciliaris = assay: as above; conditions: Application herbicide amount 320 g/ha; foliage application
In short: as §2

[2] = test system: Echinochloa crus-galli var. crus-galli; assay: as above; conditions: Application herbicide amount 320 g/ha; foliage application
In short: as §2

Galium spurium = assay: as above; conditions: Application herbicide amount 320 g/ha; foliage application
In short: as §2

Lolium multiflorum Lam. = assay: as above; conditions: Application herbicide amount 320 g/ha; foliage application
In short: as §2

Setaria viridis = assay: as above; conditions: Application herbicide amount 320 g/ha; foliage application
In short: as §2

Stellaria media = assay: as above; conditions: Application herbicide amount 320 g/ha; foliage application
In short: as §2

Veronica persica = assay: as above; conditions: Application herbicide amount 320 g/ha; foliage application
In short: as §2

[3] = test system: Beta vulgaris ssp. vulgaris; assay: Test Example 4: effect on crop by application to foliage (diluvial soil, plastic box); conditions: Application herbicide amount 320 g/ha; foliage application
In short: as §2

Brassica campestris L. = assay: as above; conditions: Application herbicide amount 320 g/ha; foliage application
In short: as §2

Glycine max = assay: as above; conditions: Application herbicide amount 320 g/ha; foliage application
In short: as §2

Triticum aestivum = assay: as above; conditions: Application herbicide amount 320 g/ha; foliage application
In short: as §2

Zea mays = assay: as above; conditions: Application herbicide amount 320 g/ha; foliage application
In short: as §2

Compound	A: Echinochloa oryzicola Vasing. (herbicidal effect grade) [1]	C: Monochoria vaginalis (herbicidal effect grade) (Monochoria vaginalis)	B: Scirpus juncoides (herbicidal effect grade) (Scirpus juncoides)	M (Abutilon theophrasti) herbicidal effect grade (Abutilon theophrasti)	J (Alopecurus myosuroides) herbicidal effect grade (Alopecurus myosuroides)	N (Amaranthus retroflexus) herbicidal effect grade (Amaranthus retroflexus)	L (Apera spica-venti.) herbicidal effect grade (Apera spica-venti.)	I (Avena fatua) herbicidal effect grade (Avena fatua)	O (Chenopodium album) herbicidal effect grade (Chenopodium album)	F (Digitaria ciliaris) herbicidal effect grade (Digitaria ciliaris)	H (Echinochloa crus-galli var. crus-galli) herbicidal effect grade [2]	Q (Galium spurium) herbicidal effect grade (Galium spurium)	K (Lolium multiflorum Lam.) herbicidal effect grade (Lolium multiflorum Lam.)	G (Setaria viridis) herbicidal effect grade (Setaria viridis)	P (Stellaria media) herbicidal effect grade (Stellaria media)	f (Beta vulgaris ssp. vulgaris) effect on crop grade [3]	g (Brassica campestris L.) effect on crop grade (Brassica campestris L.)	d (Glycine max) effect on crop grade (Glycine max)	e (Triticum aestivum) effect on crop grade (Triticum aestivum)	c (Zea mays) effect on crop grade (Zea mays)	other results
CC(C)N(C)c1nnc2c(C(=O)Nc3nnco3)ccc(C(F)(F)F)n12 [1-122]	5 (Herbicidal ratio of 90% or more (almost completely withered))	5 (Herbicidal ratio of 90% or more (almost completely withered))	5 (Herbicidal ratio of 90% or more (almost completely withered))	5 (Herbicidal ratio of 90% or more (almost completely withered))	3 (Herbicidal ratio of 40% or more and less than 70%)	5 (Herbicidal ratio of 90% or more (almost completely withered))	4 (Herbicidal ratio of 70% or more and less than 90%)	2 (Herbicidal ratio of 20% or more and less than 40%)	5 (Herbicidal ratio of 90% or more (almost completely withered))	5 (Herbicidal ratio of 90% or more (almost completely withered))	5 (Herbicidal ratio of 90% or more (almost completely withered))	4 (Herbicidal ratio of 70% or more and less than 90%)	3 (Herbicidal ratio of 40% or more and less than 70%)	5 (Herbicidal ratio of 90% or more (almost completely withered))	5 (Herbicidal ratio of 90% or more (almost completely withered))	5 (Herbicidal ratio of 90% or more (almost completely withered))	5 (Herbicidal ratio of 90% or more (almost completely withered))	5 (Herbicidal ratio of 90% or more (almost completely withered))	2 (Herbicidal ratio of 20% or more and less than 40%)	2 (Herbicidal ratio of 20% or more and less than 40%)	R (Veronica persica) herbicidal effect grade (Veronica persica): 5 (Herbicidal ratio of 90% or more (almost completely withered))
CN(c1nnc2c(C(=O)Nc3nnco3)ccc(C(F)(F)F)n12)C1CCCCC1 [1-123]	5 (Herbicidal ratio of 90% or more (almost completely withered))	4 (Herbicidal ratio of 70% or more and less than 90%)	4 (Herbicidal ratio of 70% or more and less than 90%)	4 (Herbicidal ratio of 70% or more and less than 90%)	0 (Herbicidal ratio of 5% or less (almost no effect))	4 (Herbicidal ratio of 70% or more and less than 90%)	0 (Herbicidal ratio of 5% or less (almost no effect))	1 (Herbicidal ratio of 5% or more and less than 20%)	5 (Herbicidal ratio of 90% or more (almost completely withered))	4 (Herbicidal ratio of 70% or more and less than 90%)	4 (Herbicidal ratio of 70% or more and less than 90%)	2 (Herbicidal ratio of 20% or more and less than 40%)	0 (Herbicidal ratio of 5% or less (almost no effect))	3 (Herbicidal ratio of 40% or more and less than 70%)	4 (Herbicidal ratio of 70% or more and less than 90%)	4 (Herbicidal ratio of 70% or more and less than 90%)	3 (Herbicidal ratio of 40% or more and less than 70%)	3 (Herbicidal ratio of 40% or more and less than 70%)	0 (Herbicidal ratio of 5% or less (almost no effect))	0 (Herbicidal ratio of 5% or less (almost no effect))	R (Veronica persica) herbicidal effect grade (Veronica persica): 3 (Herbicidal ratio of 40% or more and less than 70%)
Cc1nnc(NC(=O)c2ccc(C(F)(F)F)n3c(SCC(F)(F)F)nnc23)o1 [1-124]	3 (Herbicidal ratio of 40% or more and less than 70%)	1 (Herbicidal ratio of 5% or more and less than 20%)	3 (Herbicidal ratio of 40% or more and less than 70%)	5 (Herbicidal ratio of 90% or more (almost completely withered))	0 (Herbicidal ratio of 5% or less (almost no effect))	4 (Herbicidal ratio of 70% or more and less than 90%)	1 (Herbicidal ratio of 5% or more and less than 20%)	2 (Herbicidal ratio of 20% or more and less than 40%)	5 (Herbicidal ratio of 90% or more (almost completely withered))	5 (Herbicidal ratio of 90% or more (almost completely withered))	5 (Herbicidal ratio of 90% or more (almost completely withered))	2 (Herbicidal ratio of 20% or more and less than 40%)	0 (Herbicidal ratio of 5% or less (almost no effect))	3 (Herbicidal ratio of 40% or more and less than 70%)	3 (Herbicidal ratio of 40% or more and less than 70%)	3 (Herbicidal ratio of 40% or more and less than 70%)	0 (Herbicidal ratio of 5% or less (almost no effect))	3 (Herbicidal ratio of 40% or more and less than 70%)	0 (Herbicidal ratio of 5% or less (almost no effect))	1 (Herbicidal ratio of 5% or more and less than 20%)	R (Veronica persica) herbicidal effect grade (Veronica persica): 2 (Herbicidal ratio of 20% or more and less than 40%)
COCCN(C)c1nnc2c(C(=O)Nc3nnc(C)o3)ccc(C(F)(F)F)n12 [1-129]	5 (Herbicidal ratio of 90% or more (almost completely withered))	3 (Herbicidal ratio of 40% or more and less than 70%)	4 (Herbicidal ratio of 70% or more and less than 90%)	3 (Herbicidal ratio of 40% or more and less than 70%)	1 (Herbicidal ratio of 5% or more and less than 20%)	4 (Herbicidal ratio of 70% or more and less than 90%)	1 (Herbicidal ratio of 5% or more and less than 20%)	2 (Herbicidal ratio of 20% or more and less than 40%)	5 (Herbicidal ratio of 90% or more (almost completely withered))	4 (Herbicidal ratio of 70% or more and less than 90%)	5 (Herbicidal ratio of 90% or more (almost completely withered))	0 (Herbicidal ratio of 5% or less (almost no effect))	1 (Herbicidal ratio of 5% or more and less than 20%)	4 (Herbicidal ratio of 70% or more and less than 90%)	5 (Herbicidal ratio of 90% or more (almost completely withered))	5 (Herbicidal ratio of 90% or more (almost completely withered))	3 (Herbicidal ratio of 40% or more and less than 70%)	4 (Herbicidal ratio of 70% or more and less than 90%)	1 (Herbicidal ratio of 5% or more and less than 20%)	2 (Herbicidal ratio of 20% or more and less than 40%)	
